Reference: article PMC9822434, “Estradiol-Based Salicylaldehyde (Thio)Semicarbazones and Their Copper Complexes with Anticancer, Antibacterial and Antioxidant Activities” (Molecules, 2022)

Tests used:
[1] = type: physicochemical
How it was run: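 UV–vis pH-metric titrations at 25.0 ± 0.1 °C, I = 0.10 M KCl, 30% (v/v) DMSO/H2O under argon; ligand 20 μM, pH 2.0–12.5, alone or with 1 or 0.5 equiv. Cu(II). Spectra 200–800 nm, 2 cm path; pKa, overall stability constants (β) and species spectra fitted with PSEQUAD.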

[2] = DPPH free radical scavenging assay
How it was run: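 DPPH at 50 µM final mixed with compound (5–50 µM final) in ethanol at 25.0 ± 0.1 °C in tandem cuvette, read spectrophotometrically. Antioxidant activity percentage, IC50 (concentration reducing 50% of DPPH) and Trolox equivalent capacity derived; Trolox as positive control.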

[3] = tested on: A549, MCF-7, MCF-7 KCR and DU-145 cells; experiment: γH2AX immunostaining (DNA double-strand breaks); type: cell-based, human; conditions: 20 µM, 3 h
Experimental: In order to determine the degree of DNA damage induced by the treatments, DNA double-strand breaks were visualized by γH2AX immunostaining. For this, 1 × 10^5 cells/well were seeded onto coverslips in 24-well plates. […] Then, cells were fixed with 4% formaldehyde (Molar Chemicals, Halásztelek, Hungary), permeabilized with 0.3% Triton-X-100 (Calbiochem, Merck Millipore, Darmstadt, Germany) and were blocked using 5% bovine serum albumin (BSA) (Sigma-Aldrich, St. Louis, MO, USA). Then, the samples were incubated with anti-γH2AX antibody (Thermo Fisher Scientific, Waltham, MA, USA) in 1:300 dilution followed by Alexa 488 fluorophore-conjugated goat anti-mouse secondary antibody (Abcam, Cambridge, UK) in 1:600 dilution. The fluorescence intensity of the stained samples was detected by an Olympus FV10i confocal microscope.

[4] = Cu(II) complex of the named ligand, 30% (v/v) DMSO/H2O, T = 25.0 °C, I = 0.1 M (KCl)

C[C@]12CC[C@@H]3c4cc(C=NNC(N)=S)c(O)cc4CC[C@H]3[C@@H]1CCC2O (stereo partly shown) [estradiol-TSC, 2-((3,17 Dihydroxy-estra-1,3,5(10)-triene-2-yl)methylene)Hydrazine-1-carbothioamide]
pKa [CuL]+ [1]: 3.95 | logβ [CuLH−1] [1, 4]: 9.84 ± 0.03 | logβ [CuL]+ [1, 4]: 13.79 ± 0.03 | pCu5.0 ([1]; calculated at pH 5.0, cCu(II) = 20 µM, cligand = 20 µM): 7.8 | pCu6.0 ([1]; estimated at pH 6.0, cCu(II) = 20 µM, cligand = 20 µM): 9.3 | pCu7.4 ([1]; estimated at pH 7.4, cCu(II) = 20 µM, cligand = 20 µM): 12.1 | TEAC (Trolox equivalent antioxidant capacity) ([2]; DPPH assay in ethanol, 25 °C): 0.8 | % Scavenging Effect ([2]; DPPH:compound = 1:1 ratio after 30 min, ethanol, 25 °C): 72.0% | IC50 ([2]; in ethanol, T = 25 °C, cDPPH = 50 µM, ccompound = 5−50 µM): 14.6 µM | DNA double-strand breaks (γH2AX) vs untreated control cells [3]: None of these treatments caused a higher degree of DNA damage
